Experimental data reported in publication PMC4633020 (Journal of medicinal chemistry, 2015).
Values after ≈ are worked out from the molar mass of the structure shown.

Tests used:
Test in all cases: MIC, additional E. faecium strains
Type in all cases: cell-based
[1] = tested on: E. faecium 119-39A (Van S); conditions: Enterococcus faecium
E. faecium C9 = conditions: Enterococcus faecium
E. faecium ATCC BAA 2127 = conditions: Enterococcus faecium, BAA2127

## CN[C@H](CC(C)C)C(=O)N[C@H]1C(=O)N[C@@H](CC(N)=O)C(=O)N[C@H]2C(=O)N[C@H]3C(=O)N[C@H](C(=O)N[C@H](C(=O)O)c4cc(O)cc(O)c4-c4cc3ccc4O)[C@H](O)c3ccc(c(Cl)c3)Oc3cc2cc(c3O[C@@H]2O[C@H](CO)[C@@H](O)[C@H](O)[C@H]2O[C@H]2C[C@](C)(N)[C@H](O)[C@H](C)O2)Oc2ccc(cc2Cl)[C@H]1O [vancomycin]
[1]
  MIC: 0.5 µg/mL (≈ 0.345 µM)
E. faecium C9
  MIC: 2 µg/mL (≈ 1.38 µM)
E. faecium ATCC BAA 2127
  MIC: 1 µg/mL (≈ 0.69 µM)
